{"source": "patent US7988957B2", "about": "“Gene introduction efficiency enhancer” (Genesis Healthcare Corp., priority 2003, dated 2011)", "key": {"[1]": {"tested_on": "head and neck cancer cell line HEp-2", "assay": "AAV-vector-mediated EGFP transgene expression", "format": "cell-based, human", "details": "FK228 1 ng/mL", "description": "(§1) FK228 which had been isolated and purified through the method described in Japanese Patent Publication (kokoku) No. 7-64872 was employed as a histone deacetylase inhibitor. The FK228 was dissolved in ethanol for storage. When in use, the FK228 was diluted with a medium, to thereby regulate the FK228 concentration to fall within a range of 0 to 100 ng/mL.\n(§2) An AAV vector genome plasmid and a helper plasmid were introduced into 293 cells through the calcium phosphate method, and AAV vectors (types 1 to 5) which express EGFP (enhanced green fluorescent protein) under the control of a cytomegalovirus (CMV) promoter were prepared. […]\n(§3) The effect of FK228 on enhancing expression of a transgene was evaluated with glioma cells. Type-2 AAV vector (1×10^4 genome copies/cell) and FK228 (0, 0.01, 0.1, 1, 10, or 100 ng/mL) were added to a culture supernatant of the human glioma cell line U251MG, and 24 hours later, expression of EGFP was observed under a fluorescence microscope.\n(§4) Similar to the case of U251MG, in the cases of the head and neck cancer cell line HEp-2 and the subcultured human glioma cells (prepared from an operative specimen), the effect of FK228 in enhancing AAV-vector-mediated gene transfer was evaluated."}, "U251MG [2]": {"tested_on": "U251MG", "assay": "Percent occurrence of EGFP-positive cells by FACS analysis", "format": "cell-based, human", "details": "FK228 1 ng/mL, type-2 AAV vector, 24 hours, FIG. 1B", "description": "(§5) Type-2 AAV vector (1×10^4 genome copies/cell) and FK228 (0, 0.01, 0.1, or 1 ng/mL) were added to a culture supernatant of U251MG, and 24 hours later, the percent occurrence of cells positive for CD51 (integrin) or EGFP was calculated through FACS analysis. The FACS analysis was performed through a customary method by use of FACSCan (Becton Dickinson, San Jose, Calif.) and CellQuest software (Becton Dickinson, San Jose, Calif.).\n(§6) PE-labeled anti-CD51 monoclonal antibody: 13C2 was obtained from Cymbus Biotechnology Ltd., Chandlers Ford, UK. Dead cells were detected by means of 7-amino-actinomycin D (Via-Probe; Pharmingen, San Diego, Calif.).\n(§7) Cells were washed with a FACS buffer (PBS containing 5% FBS and 0.05% sodium azide), and then incubated with the antibody on ice for 30 minutes. Fluorescences attributed to EGFP, PE, and Via-Probe were detected by FL1, FL2, and FL3, respectively. Cells negative for Via-Probe; i.e., viable cells, were employed for measuring expression of EGFP and/or CD51."}, "U251MG [3]": {"tested_on": "U251MG", "assay": "Number of viral genome copies taken into cells, real-time PCR", "format": "cell-based, human", "details": "FK228 1 ng/mL", "description": "Type-2 AAV vector (1×10^4 genome copies/cell) and FK228 (1 ng/mL) were added to a culture supernatant of U251MG, and the number of viral genome copies taken into cells was semi-quantified by means of real-time PCR (ABI, Prism 7700; QIAGEN, SYBR Green PCR kit QuantiTect) (performed through the method according to Mol. Ther. Aug. 6, 2002 (2): 272-278). After U251MG cells were infected with the type-2 AAV vector, the number of intracellular genome copies was measured in a time-course manner (0, 2, 4, 12, and 24 hours)."}, "[4]": {"tested_on": "human glioma cell line U251MG", "assay": "AAV-vector-mediated EGFP transgene expression, fluorescence microscope", "format": "cell-based", "details": "24 hours", "description": "as §1\nAn AAV vector genome plasmid and a helper plasmid were introduced into 293 cells through the calcium phosphate method, and AAV vectors (types 1 to 5) which express EGFP (enhanced green fluorescent protein) under the control of a cytomegalovirus (CMV) promoter were prepared. Specifically, the AAV vector preparation was performed through the method described in the following references. • Reference 1: Methods 2002; 8: 237-247 (described above) • Reference 2: Methods Enzymol 2002; 346: 378-393 (described above) • 3. Cells and Cell Culture (1) Human Glioma Cell Line; U251MG, U87MG\nU251MG was obtained from JCRB Cell Bank, National Institute of Health Sciences. […]\nas §3"}, "[5]": {"tested_on": "subcultured human glioma cells (prepared from an operative specimen)", "assay": "AAV-vector-mediated EGFP transgene expression", "format": "cell-based", "details": "FK228 1 ng/mL", "description": "as §1, §2, §3, §4"}, "CD51 (integrin)": {"tested_on": "CD51 (integrin)", "assay": "Percent occurrence of CD51 (integrin)-positive cells by FACS analysis", "format": "cell-based, human", "details": "FK228 0, 0.01, 0.1 or 1 ng/mL; 24 hours; U251MG; FIG. 1A", "description": "as §5, §6, §7"}}}
{"smiles": "C/C=C1\\NC(=O)[C@H]2CSSCC/C=C/[C@H](CC(=O)N[C@H](C(C)C)C(=O)N2)OC(=O)[C@H](C(C)C)NC1=O", "note": "[FK228]", "values": [{"measurement": "EGFP expression", "setting": "[1]", "value": "enhanced"}, {"measurement": "percent occurrence of EGFP-positive cells", "setting": "U251MG [2]", "value": "sharply increased"}, {"measurement": "genome copy number in the FK228-treated group", "setting": "U251MG [3]; 24 hours after the infection", "value": "slight increase"}, {"measurement": "genome copy number, FK228-treated group versus control group (only a solvent)", "setting": "U251MG [3]; type-2 AAV vector, 0, 2, 4, 12 and 24 hours, FIG. 2", "value": "No significant difference"}, {"measurement": "EGFP expression enhancing effect", "setting": "[4]; FK228 at 1 ng/mL or more, type-2 AAV vector", "value": "remarkable EGFP expression enhancing effect"}, {"measurement": "expression of EGFP", "setting": "[4]; Type-2 AAV vector 1×10^4 genome copies/cell, FK228 0, 0.01, 0.1, 1, 10 or 100 ng/mL", "value": "enhanced in an FK228-dose-dependent manner"}, {"measurement": "EGFP expression", "setting": "[5]", "value": "enhanced"}, {"measurement": "percent occurrence of integrin-positive cells", "setting": "CD51 (integrin)", "value": "gradual increase"}]}
